Measurements as given in ChEMBL document CHEMBL1201862, “PubChem BioAssay data set” (2004).
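Five compound concentrations were applied to cells in 96-well plates for 48 hours; endpoints were derived by simple linear interpolation of the resulting dose-response curve. The concentration for 50% growth inhibition is given as GI50.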 The source made the active and inactive calls. Rule as the data show it: active = GI50 up to about 1.1 µM and inactive = higher.

Experiments:
Test in all cases: NCI anticancer screen, dose series, 48 h
[1] = tested on: EKVX
[2] = tested on: K562
[3] = tested on: SN12C
[4] = tested on: SK-OV-3
[5] = tested on: LOX IMVI
[6] = tested on: ACHN
[7] = tested on: OVCAR-8
[8] = tested on: OVCAR-4
[9] = tested on: MOLT-4
[10] = tested on: SNB-75
[11] = tested on: SR
[12] = tested on: SK-MEL-28
[13] = tested on: UACC-257
[14] = tested on: RXF 393
[15] = tested on: U-251
[16] = tested on: NCI/ADR-RES
[17] = tested on: MCF7
[18] = tested on: DU-145
[19] = tested on: MDA-MB-231

Measured: GI50

COc1ccc(-c2cc(O)c3cc(Cl)ccc3n2)cc1
inactive: [1] > 100 µM | [2] > 100 µM | [3] > 100 µM | [4] > 100 µM | [5] > 100 µM | [6] > 100 µM | [7] > 100 µM | [8] > 100 µM | [9] > 100 µM | [10] > 100 µM | [11] > 100 µM | [12] > 100 µM | [13] > 100 µM | [14] > 100 µM

NCCCCNCCCNC(=O)c1nc(-c2csc(CCN)n2)sc1Cl
inactive: [1] > 100 µM | [2] 49.5 µM | [3] > 100 µM | [4] > 100 µM | [6] > 100 µM | [7] > 100 µM | [8] > 100 µM | [9] > 100 µM | [10] > 100 µM | [15] > 100 µM | [11] > 100 µM | [12] > 100 µM | [13] > 100 µM | [14] > 100 µM

CCCCc1nccc2c(C)c3[nH]c4ccccc4c3cc12
inactive: [1] 4.48 µM | [2] 1.95 µM | [3] 6.98 µM | [4] 5.81 µM | [5] 1.5 µM | [16] 1.71 µM | [7] 2.84 µM | [8] 3.91 µM | [17] 2.69 µM | [9] 1.98 µM | [10] 5.93 µM | [15] 3.37 µM | [12] 4.26 µM | [13] 2.42 µM | [14] 2.22 µM

CC(=O)OC1CC[C@@]2(C)C(=CC[C@@H]3[C@@H]2CC[C@]2(C)C(OC(C)=O)[C@H](n4ccnc4)C[C@@H]32)C1 (stereo not given in full)
inactive: [1] 37.7 µM | [2] 24.6 µM | [3] 56 µM | [5] 18.7 µM | [16] 25.8 µM | [6] 40.3 µM | [7] 17.1 µM | [18] 73.5 µM | [8] 20.9 µM | [19] 37.2 µM | [17] 16.4 µM | [9] 12.9 µM | [10] 54.7 µM | [15] 37.8 µM | [11] 16.1 µM | [12] 17.7 µM | [13] 17.3 µM | [14] 30.2 µM

CC1CC(c2ccc(Cl)c(Cl)c2)=Nc2ccccc2S1 (stereo not given)
inactive: [1] > 100 µM | [2] > 100 µM | [3] > 100 µM | [4] > 100 µM | [5] > 100 µM | [6] > 100 µM | [7] > 100 µM | [8] > 100 µM | [9] > 100 µM | [10] > 100 µM | [15] > 100 µM | [11] 46 µM | [12] > 100 µM | [13] > 100 µM | [14] > 100 µM

C[n+]1c2ccccc2c(NC(CCCNC(=N)N)C(=O)O)c2ccccc21 (stereo not given)
inactive: [1] > 100 µM | [2] > 100 µM | [3] > 100 µM | [4] > 100 µM | [6] > 100 µM | [7] > 100 µM | [8] > 100 µM | [9] > 100 µM | [10] > 100 µM | [15] > 100 µM | [11] > 100 µM | [13] > 100 µM | [14] > 100 µM

COC(=O)/C(C=O)=C/Sc1ccccc1
inactive: [1] 29 µM | [2] 50.7 µM | [3] 19.7 µM | [4] 42.9 µM | [5] 8.65 µM | [6] 26.4 µM | [7] 15.6 µM | [8] 45 µM | [9] > 100 µM | [10] 18.5 µM | [15] 17.1 µM | [11] 40.1 µM | [12] 19.4 µM | [13] 29.8 µM | [14] 15.3 µM

O=C1C(Cl)=C(Cl)C(=O)N1C1C2CC3CC(C2)CC1C3 (stereo not given)
inactive: [1] > 100 µM | [2] 28 µM | [3] > 100 µM | [4] > 100 µM | [5] > 100 µM | [6] > 100 µM | [7] > 76.4 µM | [8] > 100 µM | [9] 21.4 µM | [10] > 100 µM | [15] > 100 µM | [11] 31 µM | [12] > 100 µM | [13] > 100 µM | [14] 94.6 µM

O=C1OC(c2ccccc2)=N/C1=C/NC(Cc1c[nH]c2ccccc12)C(=O)O (stereo not given)
inactive: [1] > 100 µM | [2] > 100 µM | [3] > 100 µM | [4] > 100 µM | [5] > 100 µM | [6] > 100 µM | [7] > 100 µM | [8] > 100 µM | [9] > 100 µM | [10] 69.7 µM | [15] > 100 µM | [11] > 100 µM | [12] > 100 µM | [13] > 100 µM | [14] > 100 µM

CC/C(SC)=[N+](\C)[O-]
inactive: [1] > 100 µM | [2] 44.2 µM | [3] > 100 µM | [4] > 100 µM | [5] > 41.3 µM | [6] > 100 µM | [7] > 100 µM | [8] > 100 µM | [9] 32.7 µM | [10] > 67.9 µM | [15] > 100 µM | [11] 25.8 µM | [12] > 100 µM | [13] > 100 µM | [14] > 100 µM

O=C1c2ccccc2C(=O)c2nc3c(O)cccc3cc21
inactive: [1] 14.5 µM | [2] 5.83 µM | [3] 25.4 µM | [5] 13.9 µM | [6] 27 µM | [7] 26 µM | [8] 12.9 µM | [9] 3.38 µM | [10] 68.1 µM | [15] 20.8 µM | [11] 3.18 µM | [12] > 100 µM | [13] 10.3 µM | [14] > 100 µM

CC1=NOC(=O)/C1=C/c1ccc([N+](=O)[O-])cc1
inactive: [1] > 100 µM | [2] > 100 µM | [3] > 100 µM | [4] > 100 µM | [5] > 100 µM | [6] > 100 µM | [7] > 100 µM | [8] > 100 µM | [9] > 100 µM | [10] > 100 µM | [15] > 100 µM | [11] > 100 µM | [12] > 100 µM | [13] > 100 µM | [14] > 100 µM

O=c1cc(-c2ccc(Cl)cc2)oc2cc(OCCCOc3ccc4c(=O)cc(-c5ccc(Cl)cc5)oc4c3)ccc12
inactive: [1] > 100 µM | [2] > 100 µM | [3] > 100 µM | [4] > 100 µM | [5] > 100 µM | [6] > 100 µM | [7] > 100 µM | [8] > 100 µM | [9] > 100 µM | [10] 45.2 µM | [15] > 100 µM | [11] > 100 µM | [12] > 100 µM | [13] > 100 µM | [14] > 100 µM

CC1=CC2CC(C)C1(C)CCc1ccoc12 (stereo not given)
inactive: [1] > 100 µM | [2] > 100 µM | [3] > 100 µM | [4] > 100 µM | [5] > 100 µM | [6] > 100 µM | [7] > 100 µM | [8] > 100 µM | [9] > 100 µM | [10] > 100 µM | [15] > 100 µM | [11] > 100 µM | [12] > 100 µM | [13] > 100 µM | [14] > 100 µM

O=C1NC2CCC(C2)C1c1ccccc1 (stereo not given)
inactive: [1] > 100 µM | [2] > 100 µM | [3] > 100 µM | [4] > 100 µM | [5] > 100 µM | [6] > 100 µM | [7] > 100 µM | [8] > 100 µM | [9] > 100 µM | [10] > 100 µM | [15] > 100 µM | [11] > 100 µM | [12] > 100 µM | [14] > 100 µM

O=S1(=O)C(=C(c2ccccc2)c2ccccc2)S(=O)(=O)c2ccccc21
inactive: [1] > 100 µM | [2] > 100 µM | [3] > 100 µM | [4] > 56.5 µM | [5] > 100 µM | [16] > 100 µM | [7] > 100 µM | [8] 83.6 µM | [17] 7.46 µM | [9] > 100 µM | [10] 20.2 µM | [15] 51.6 µM | [12] > 100 µM | [13] > 100 µM | [14] 34.1 µM

O=C(O)C1c2ccccc2C(C(=O)O)c2ccccc21 (stereo not given)
inactive: [2] > 100 µM | [3] > 100 µM | [4] > 100 µM | [5] > 100 µM | [6] > 100 µM | [7] > 100 µM | [8] > 100 µM | [9] > 100 µM | [10] > 100 µM | [15] > 100 µM | [11] > 100 µM | [13] > 100 µM | [14] > 100 µM

O=C1C2C3C=CC(C2C(=O)N1CO)C1C2C(=O)N(CO)C(=O)C2C31 (stereo not given)
inactive: [1] > 100 µM | [2] > 48.6 µM | [3] > 69.8 µM | [4] > 100 µM | [5] > 45 µM | [6] > 44.9 µM | [7] 36.4 µM | [8] > 45.8 µM | [9] 74.1 µM | [10] 70.8 µM | [15] > 67.1 µM | [11] 22.5 µM | [12] > 84.1 µM | [13] > 100 µM | [14] > 81.7 µM
